{"source": "ChEMBL document CHEMBL5550113", "about": "“Bioisoteres for carboxylic acids: From ionized isosteres to novel unionized replacements” (Bioorg Med Chem, 2024)"}
{"species_on_record": "Cavia porcellus", "assay": "Binding affinity to Guinea pig Leukotriene receptor", "details": "filed as antagonist"}
{"smiles": "COc1cc(C(=O)NS(=O)(=O)c2ccccc2)ccc1Cc1cn(C)c2ccc(NC(=O)OC3CCCC3)cc12", "pKb": 9.69}
{"test_system": "not listed separately", "assay": "Toxicity in po dosed Guinea pig assessed as effective dose", "assay_type": "organism-based, Cavia porcellus", "details": "in vivo", "units": {"ED50": "mg/kg"}}
{"smiles": "COc1cc(C(=O)NS(=O)(=O)c2ccccc2C)ccc1Cc1cn(C)c2ccc(NC(=O)OC3CCCC3)cc12", "note": "[ZAFIRLUKAST]", "ED50": 0.3}
{"smiles": "COc1cc(C(=O)NS(=O)(=O)c2ccccc2)ccc1Cc1cn(C)c2ccc(NC(=O)OC3CCCC3)cc12", "ED50": 2.5}
{"target": "CDK12/Cyclin K (Homo sapiens, UniProt Q9NYV4)", "sequence (O75909 whole entry)": "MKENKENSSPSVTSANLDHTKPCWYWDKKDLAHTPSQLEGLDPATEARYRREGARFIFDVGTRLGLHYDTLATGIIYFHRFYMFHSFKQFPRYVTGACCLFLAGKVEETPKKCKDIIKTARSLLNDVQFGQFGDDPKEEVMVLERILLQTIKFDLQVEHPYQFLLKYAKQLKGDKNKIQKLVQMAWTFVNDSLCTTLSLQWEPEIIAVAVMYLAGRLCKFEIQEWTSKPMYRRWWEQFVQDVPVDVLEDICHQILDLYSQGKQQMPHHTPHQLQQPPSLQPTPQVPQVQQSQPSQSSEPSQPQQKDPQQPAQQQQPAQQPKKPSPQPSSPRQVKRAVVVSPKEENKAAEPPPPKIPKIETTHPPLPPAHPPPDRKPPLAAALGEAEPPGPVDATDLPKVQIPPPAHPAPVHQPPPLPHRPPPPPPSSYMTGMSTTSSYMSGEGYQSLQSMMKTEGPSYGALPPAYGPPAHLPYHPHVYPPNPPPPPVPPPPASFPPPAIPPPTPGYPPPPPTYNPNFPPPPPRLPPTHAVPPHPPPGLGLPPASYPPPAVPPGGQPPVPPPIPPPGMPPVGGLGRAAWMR", "sequence (Q9NYV4 whole entry)": "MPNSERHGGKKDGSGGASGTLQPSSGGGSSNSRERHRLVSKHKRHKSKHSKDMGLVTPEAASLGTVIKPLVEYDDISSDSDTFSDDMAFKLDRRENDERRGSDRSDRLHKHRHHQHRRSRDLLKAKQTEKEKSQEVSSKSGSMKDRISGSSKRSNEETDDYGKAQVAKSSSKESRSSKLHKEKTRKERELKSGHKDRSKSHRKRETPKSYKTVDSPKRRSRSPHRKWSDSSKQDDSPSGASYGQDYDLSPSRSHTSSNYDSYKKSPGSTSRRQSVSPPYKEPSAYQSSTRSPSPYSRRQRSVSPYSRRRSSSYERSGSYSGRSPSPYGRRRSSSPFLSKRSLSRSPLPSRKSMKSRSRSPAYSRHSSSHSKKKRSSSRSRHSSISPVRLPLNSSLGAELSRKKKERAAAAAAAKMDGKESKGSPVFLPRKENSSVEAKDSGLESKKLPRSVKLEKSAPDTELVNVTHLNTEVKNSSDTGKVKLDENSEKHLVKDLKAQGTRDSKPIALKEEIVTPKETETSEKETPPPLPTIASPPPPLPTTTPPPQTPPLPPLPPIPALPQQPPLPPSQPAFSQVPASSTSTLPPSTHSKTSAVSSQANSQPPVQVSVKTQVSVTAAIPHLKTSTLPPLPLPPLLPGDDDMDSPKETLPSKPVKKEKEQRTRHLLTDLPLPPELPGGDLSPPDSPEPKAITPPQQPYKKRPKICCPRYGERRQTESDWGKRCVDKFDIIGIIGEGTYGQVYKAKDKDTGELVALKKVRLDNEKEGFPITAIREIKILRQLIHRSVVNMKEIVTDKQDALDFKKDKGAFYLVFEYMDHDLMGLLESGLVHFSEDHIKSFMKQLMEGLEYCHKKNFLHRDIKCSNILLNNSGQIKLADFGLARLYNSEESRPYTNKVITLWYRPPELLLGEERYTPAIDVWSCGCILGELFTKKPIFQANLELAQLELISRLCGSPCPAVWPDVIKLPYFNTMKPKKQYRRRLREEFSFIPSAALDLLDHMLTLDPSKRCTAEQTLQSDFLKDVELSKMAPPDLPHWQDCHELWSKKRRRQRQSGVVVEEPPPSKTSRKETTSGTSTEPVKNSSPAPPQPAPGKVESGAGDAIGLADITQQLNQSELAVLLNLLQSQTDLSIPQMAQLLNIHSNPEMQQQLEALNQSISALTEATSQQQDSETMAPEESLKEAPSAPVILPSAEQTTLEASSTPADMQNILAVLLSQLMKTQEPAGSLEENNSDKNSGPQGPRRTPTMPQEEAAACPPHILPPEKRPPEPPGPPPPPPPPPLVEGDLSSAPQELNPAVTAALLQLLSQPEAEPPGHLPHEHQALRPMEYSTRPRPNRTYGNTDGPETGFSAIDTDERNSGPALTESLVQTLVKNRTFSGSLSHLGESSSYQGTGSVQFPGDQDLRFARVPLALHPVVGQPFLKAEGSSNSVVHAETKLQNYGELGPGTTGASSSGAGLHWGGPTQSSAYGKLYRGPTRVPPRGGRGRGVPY", "assay": "Inhibition of 6His-tagged wild type CDK12/cyclin K (unknown origin) infected in insect cells incubated for 1 hr by TR-FRET assay", "details": "not given", "units": {"EC50": "nM"}}
{"smiles": "CC[C@H](CO)Nc1nc(NCCCc2cccc(C)c2)c2ncn(C(C)C)c2n1", "EC50": 35}
{"smiles": "CC[C@H](CO)Nc1nc(NCCCc2ccccc2)c2ncn(C(C)C)c2n1", "EC50": 57}
{"smiles": "CC[C@H](CO)Nc1nc(NCc2nc3ccc(F)c(F)c3[nH]2)c2ncn(C(C)C)c2n1", "EC50": 41}
{"smiles": "CC[C@H](CO)Nc1nc(NCc2ccc(-c3ccccn3)c(F)c2)c2ncn(C(C)C)c2n1", "EC50": 78}
{"smiles": "CC[C@H](CO)Nc1nc(NCCCc2cccc(C)n2)c2ncn(C(C)C)c2n1", "EC50": 36}
{"smiles": "CC[C@H](CO)Nc1nc(NCCCc2ccc(C)c(C)c2)c2ncn(C(C)C)c2n1", "EC50": 18}
{"smiles": "CC[C@H](CO)Nc1nc(NCc2ccc(-c3ccc(C)s3)cc2)c2ncn(C(C)C)c2n1", "EC50": 15}
{"smiles": "CC[C@H](CO)Nc1nc(NCCCCCc2cccc3ccccc23)c2ncn(C(C)C)c2n1", "EC50": 182}
{"smiles": "CC[C@H](CO)Nc1nc(NCCCc2ccco2)c2ncn(C(C)C)c2n1", "EC50": 603}
{"smiles": "CC[C@H](CO)Nc1nc(NCCCc2cccc(F)c2)c2ncn(C(C)C)c2n1", "EC50": 46}
{"smiles": "CC[C@H](CO)Nc1nc(NCCCc2ccnn2C)c2ncn(C(C)C)c2n1", "EC50": 246}
{"smiles": "CC[C@H](CO)Nc1nc(NCc2ccc(-c3ccccc3)cc2)c2ncn(C(C)C)c2n1", "EC50": 17}
{"smiles": "CC[C@H](CO)Nc1nc(NCc2ccc(-c3ccncc3)cc2)c2ncn(C(C)C)c2n1", "EC50": 36}
{"smiles": "CC[C@H](CO)Nc1nc(NCc2ccn(-c3cccc(Cl)c3)n2)c2ncn(C(C)C)c2n1", "EC50": 44}
{"smiles": "CC[C@H](CO)Nc1nc(NCc2ccc(-c3ccncc3)nc2)c2ncn(C(C)C)c2n1", "EC50": 28}
{"smiles": "CC[C@H](CO)Nc1nc(NCCCc2ccc(Cl)c(Cl)c2)c2ncn(C(C)C)c2n1", "EC50": 21}
{"smiles": "CC[C@H](CO)Nc1nc(NCc2ccc(-c3ccccn3)c(=O)[nH]2)c2ncn(C(C)C)c2n1", "EC50": 21}
{"smiles": "CC[C@H](CO)Nc1nc(NCc2ccc3ccccc3c2)c2ncn(C(C)C)c2n1", "EC50": 60}
